From ChEMBL document CHEMBL2385043, “Recent advances in malaria drug discovery” (Bioorg Med Chem Lett, 2013)

Legend:
Plasmodium = assay: Antimalarial activity against Plasmodium infected in mouse; format: functional
[1] = Toxicity in po dosed Sprague-Dawley rat; format: organism-based; details: in vivo
Plasmodium falciparum [2] = assay: Antiplasmodial activity against Plasmodium falciparum; format: functional, organism-based
Plasmodium berghei [3] = assay: Antimalarial activity against Plasmodium berghei infected in Swiss albino mouse assessed as reduction in parasitemia after 4 days by microscopic analysis; format: functional; details: 96 h
Plasmodium berghei [4] = assay: Antimalarial activity against Plasmodium berghei infected in Swiss albino mouse assessed as reduction in parasitemia after 4 days by microscopic analysis relative to artesunate; format: functional
Plasmodium falciparum [5] = assay: Antiplasmodial activity against Plasmodium falciparum relative to artesunate; format: functional
Plasmodium falciparum [6] = assay: Antiplasmodial activity against drug-sensitive Plasmodium falciparum 3D7 after 24 hrs by [3H]-hypoxanthine incorporation assay; format: functional, organism-based
Plasmodium falciparum [7] = assay: Antiplasmodial activity against NITD609-resistant Plasmodium falciparum Dd2 infected in human erythrocytes after 48 hrs by [3H]-hypoxanthine incorporation assay; format: functional, organism-based
[8] = Half life in human; format: ADME, organism-based; details: in vivo
Plasmodium falciparum [9] = assay: Antimalarial activity against Plasmodium falciparum infected in po dosed mouse assessed as decrease in parasitemia administered on day 1 postinfection measured on day 3 by FACS analysis; format: functional
Plasmodium falciparum [10] = assay: Antiplasmodial activity against chloroquine-resistant Plasmodium falciparum K1 infected in human erythrocytes after 48 hrs by [3H]-hypoxanthine incorporation assay; format: functional, organism-based
Plasmodium falciparum [11] = assay: Antiplasmodial activity against multidrug-resistant Plasmodium falciparum W2 infected in human erythrocytes after 24 hrs by [3H]-hypoxanthine incorporation assay
Plasmodium falciparum [12] = assay: Antimalarial activity against Plasmodium falciparum infected in SCID mouse; format: functional
Plasmodium berghei [13] = assay: Antimalarial activity against Plasmodium berghei infected in po dosed mouse; format: functional
[14] = Half life in po dosed rat; details: in vivo
[15] = Oral bioavailability in rat; format: ADME, organism-based; details: in vivo
Plasmodium falciparum [16] = assay: Antiplasmodial activity against drug-sensitive Plasmodium falciparum 3D7; format: functional, organism-based
Lysine--tRNA ligase = Lysine--tRNA ligase (Homo sapiens, UniProt Q15046); assay: Inhibition of human recombinant cytoplasmic lysyl-tRNA synthetase
Plasmodium falciparum [17] = assay: Antiplasmodial activity against liver stage of drug-sensitive Plasmodium falciparum 3D7; format: functional, organism-based; details: 3D7, Liver
Plasmodium falciparum [18] = assay: Antiplasmodial activity against liver stage of drug-sensitive Plasmodium falciparum D10; format: functional, organism-based
Plasmodium falciparum [19] = assay: Antiplasmodial activity against chloroquine and antifolate-sensitive Plasmodium falciparum TM4 after 24 hrs by [3H]-hypoxanthine incorporation assay; format: functional, organism-based
[20] = Selectivity ratio of IC50 for human cytochrome b-c1 complex to IC50 for Plasmodium falciparum cytochrome b-c1 complex
[21] = Inhibition of Plasmodium falciparum cytochrome b-c1 complex
Plasmodium falciparum [22] = assay: Antiplasmodial activity against sexual blood stage of Plasmodium falciparum; format: functional, organism-based
Plasmodium falciparum [23] = assay: Antiplasmodial activity against asexual blood stage of Plasmodium falciparum; format: functional, organism-based
Plasmodium yoelii = assay: Antiplasmodial activity against liver stage of Plasmodium yoelii; format: functional, organism-based
Plasmodium falciparum [24] = assay: Antiplasmodial activity against multidrug-resistant Plasmodium falciparum W2 infected in human erythrocytes; format: functional, organism-based
[25] = Terminal half life in human; format: ADME, organism-based; details: in vivo, read-out: beta t1/2 (converted)
Plasmodium yoelii yoelii = assay: Antimalarial activity against Plasmodium yoelii yoelii infected in mouse; format: functional
Plasmodium falciparum [26] = assay: Antiplasmodial activity against Plasmodium falciparum by SYBR Green staining-based fluorescence assay; format: functional, organism-based
[27] = Half life in Sprague-Dawley rat at 3 mg/kg, iv; format: ADME, organism-based; parameters: dose 3 mg/kg, route intravenous; details: in vivo
Plasmodium falciparum [28] = assay: Antimalarial activity against multidrug-resistant Plasmodium falciparum W2 infected in ip dosed mouse assessed as reduction in parasitemia administered on day 64 post-infection; format: functional; details: 1536 h
Plasmodium falciparum [29] = assay: Antiplasmodial activity against multidrug-resistant Plasmodium falciparum W2 infected in human erythrocytes after 72 hrs by ELISA; format: functional, organism-based; details: W2, 72 h
Plasmodium falciparum [30] = assay: Antiplasmodial activity against Plasmodium falciparum VS/1 expressing DHFR quadruple mutation by [3H]-hypoxanthine incorporation assay; format: functional, organism-based
Plasmodium falciparum [31] = assay: Antiplasmodial activity against wild type Plasmodium falciparum TM4 by [3H]-hypoxanthine incorporation assay; details: TM4, 3 h

Chain of Lysine--tRNA ligase (Q15046 whole entry): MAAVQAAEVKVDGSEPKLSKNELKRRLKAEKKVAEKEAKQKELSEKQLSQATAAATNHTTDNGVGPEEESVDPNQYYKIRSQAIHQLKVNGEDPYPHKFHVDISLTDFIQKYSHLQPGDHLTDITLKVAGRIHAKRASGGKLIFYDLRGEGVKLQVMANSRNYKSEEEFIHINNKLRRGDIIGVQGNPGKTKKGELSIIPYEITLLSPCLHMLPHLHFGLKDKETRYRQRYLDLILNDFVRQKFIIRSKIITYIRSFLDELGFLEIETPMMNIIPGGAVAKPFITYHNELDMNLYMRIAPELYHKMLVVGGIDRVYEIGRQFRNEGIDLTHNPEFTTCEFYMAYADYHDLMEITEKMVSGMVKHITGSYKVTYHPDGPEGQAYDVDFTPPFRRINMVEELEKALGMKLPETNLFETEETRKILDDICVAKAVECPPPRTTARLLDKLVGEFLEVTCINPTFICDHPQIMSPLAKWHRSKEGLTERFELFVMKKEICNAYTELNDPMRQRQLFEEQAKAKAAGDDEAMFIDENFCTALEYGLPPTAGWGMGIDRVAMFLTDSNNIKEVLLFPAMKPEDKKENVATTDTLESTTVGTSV

## c1cc([C@H]2CC[C@]3(CC2)OO[C@]2(O3)C3CC4CC(C3)CC2C4)ccc1OCCN1CCOCC1 [ARTEFENOMEL]
Plasmodium
  ED50: 20 mg/kg
[1]
  MTD: 300 mg/kg
Plasmodium falciparum [2]
  EC50: 0.0034 µM

## C[C@H]1[C@H](N2CCS(=O)(=O)CC2)O[C@@H]2O[C@@]3(C)CC[C@H]4[C@H](C)CC[C@@H]1[C@@]24OO3 [ARTEMIFONE]
Plasmodium berghei [3]
  ED50: 2 mg/kg/day
Plasmodium berghei [4]
  fold change (FC): 4
Plasmodium falciparum [5]
  fold change (FC): 10
Plasmodium falciparum [6]
  EC50: 0.00088 µM

## C[C@@H]1CC[C@H]2[C@@H](C)C(=O)O[C@@H]3O[C@@]4(C)CC[C@@H]1[C@]32OO4 [ARTEMISININ]
Plasmodium falciparum [7]
  EC50: 0.015 µM

## C[C@H]1[C@@H](O)O[C@@H]2O[C@@]3(C)CC[C@H]4[C@H](C)CC[C@@H]1[C@@]24OO3 [ARTENIMOL]
[8]
  half-life: 1 h

## C[C@H]1[C@H](OC(=O)CCC(=O)O)O[C@@H]2O[C@@]3(C)CC[C@H]4[C@H](C)CC[C@@H]1[C@@]24OO3 [ARTESUNATE]
Plasmodium falciparum [9]
  ED50: 6.2 mg/kg/day
Plasmodium falciparum [10]
  EC50: 0.0031 µM
[8]
  half-life: 1 h

## CCN(CC)CCCC(C)Nc1ccnc2cc(Cl)ccc12 (stereo not drawn) [CHLOROQUINE]
Plasmodium falciparum [11]
  EC50: 0.049 µM
Plasmodium falciparum [12]
  ED90: 6.4 mg/kg/day
Plasmodium berghei [13]
  ED50: 1.9 mg/kg

## C[C@H]1Cc2c([nH]c3cc(Cl)c(F)cc23)[C@@]2(N1)C(=O)Nc1ccc(Cl)cc12 [CIPARGAMIN]
Plasmodium berghei [13]
  ED50: 1.2 mg/kg
[14]
  half-life: 27 h
[15]
  bioavailability: 100%
Plasmodium falciparum [16]
  EC50: 0.0007 µM

## C[C@H]1CCC[C@H](C[C@H]2Cc3cc(O)cc(O)c3C(=O)O2)O1 [CLADOSPORIN]
Lysine--tRNA ligase
  IC50: > 20 µM
Plasmodium falciparum [17]
  EC50: 0.045 µM
Plasmodium falciparum [18]
  EC50: 0.09 µM

## CC1(C)N=C(N)N=C(N)N1c1ccc(Cl)cc1 [CYCLOGUANIL]
Plasmodium falciparum [19]
  EC50: 0.038 µM

## CCCCCCCCCCOc1cc2c(O)c(C(=O)OCC)cnc2cc1OCC [DECOQUINATE]
[20]
  Ratio IC50: > 5000
[21]
  IC50: 0.002 µM
Plasmodium falciparum [22]
  EC50: 0.036 µM
Plasmodium falciparum [23]
  EC50: 0.01 µM
Plasmodium yoelii
  EC50: 0.0026 µM

## CCCCN(CCCC)CC(O)c1cc(Cl)cc2c1-c1ccc(Cl)cc1/C2=C/c1ccc(Cl)cc1 (stereo not drawn) [LUMEFANTRINE]
Plasmodium falciparum [24]
  EC50: 0.00045 µM
[25]
  half-life: 72 h

## C[C@@]12OC(=O)[C@]1([C@@H](O)[C@@H]1C=CCCC1)NC(=O)[C@@H]2CCCl [MARIZOMIB]
Plasmodium yoelii yoelii
  ED50: 0.25 mg/kg/day
Plasmodium falciparum [26]
  EC50: 0.011 µM

## CC(C)(N)CNC(=O)C[C@H]1CC[C@]2(CC1)OO[C@]1(O2)C2CC3CC(C2)CC1C3 [OZ277]
[27]
  half-life: 1 h

## Clc1ccc2c(N3CCN(CCCN4CCN(c5ccnc6cc(Cl)ccc56)CC4)CC3)ccnc2c1 [PIPERAQUINE]
Plasmodium falciparum [28]
  ED50: 4.5 mg/kg
[8]
  half-life: 192 h
Plasmodium falciparum [29]
  EC50: 0.0125 µM

## CCc1nc(N)nc(N)c1-c1ccc(Cl)cc1 [PYRIMETHAMINE]
Plasmodium falciparum [30]
  IC50: > 100 µM
Plasmodium falciparum [31]
  IC50: 0.058 µM
